{"source": "patent US20050107289A1", "about": "“Anti-microbial peptides and compositions” (priority 2001, published 2005)", "key": {"murine red blood cells [1]": {"system": "murine red blood cells", "settings": "cited from earlier work"}, "[2]": {"system": "S. aureus (MRSA) ATCC 33591", "format": "cell-based, Staphylococcus aureus", "settings": "for MRSA (in vitro activity): Table 9; for MRSA MIC / S. aureus (MRSA) MIC: ATCC 33591", "outline": "(§1)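 MICs come from NCCLS-style (M7-A4) dilution testing, mostly microdilution, with an inoculum near 2.5×10^5 cfu/ml from 4000-fold-diluted overnight cultures. Peptide series were 2-fold steps spanning roughly 400–2 μg/ml, prepared in 9% aqueous sucrose with 5% DMSO.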"}, "murine red blood cells [3]": {"system": "murine red blood cells", "experiment": "Red blood cell hemolysis", "format": "cell-based, mouse", "parameters": "RBC Hemolysis (HD50): unit not given here", "outline": "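Hemolysis read as A560 of supernatant, scaled between saline (0%) and 1% Triton X-100 (100%) controls; peptides were serially diluted onto 5% murine red cells in saline plus 10% FBS and incubated 30 min at 37° C.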"}, "[4]": {"system": "vancomycin-resistant Enterococus faecalis (VRE)(ATCC 51575)", "format": "cell-based, Enterococcus faecalis", "parameters": "key to VRE (in vitro activity): peptide concentration in μg/ml (broth dilution assay)", "settings": "for VRE (in vitro activity): Table 9; for VRE MIC: ATCC 51575", "outline": "as §1"}, "[5]": {"system": "Enterococcus faecalis vancomycin-resistant clinical isolate", "format": "cell-based", "settings": "data from MDS Panlabs", "protocol": "(§2) The antimicrobial activity of the peptides was determined using a broth dilution assay essentially as descried in the guidelines of the National Committee for […] (NCCLS) [National Committee for Clinical Laboratory Standards. Methods for dilution antimicrobial susceptibility tests for bacteria that grow aerobically. Fourth edition. Approved Standard (1997). Document M7-A4. […] The microdilution method has the advantages of requiring less amount of peptide for each assay and the possibility of multiple simultaneous inoculations and was used in most studies. Several of the strains of bacteria tested are further described in Table 3."}, "[6]": {"system": "Bacillus subtilis ATCC 43223", "experiment": "MIC, Bacillus subtilis", "format": "cell-based", "settings": "data from MDS Panlabs Pharmacology Services", "protocol": "as §2"}, "[7]": {"experiment": "Cytotoxicity to M21 melanoma cells", "format": "cell-based", "settings": "human, read-out: M21 (melanoma) LD50"}, "E. coli JM109(DE3)": {"system": "E. coli JM109(DE3)", "format": "cell-based, Escherichia coli", "settings": "JM109", "outline": "as §1"}, "[8]": {"system": "Streptococcus pneumoniae (ATCC 6301)", "format": "cell-based", "outline": "as §1"}, "[9]": {"system": "Bacillus cereus ATCC 11778", "format": "cell-based", "outline": "as §1"}, "[10]": {"system": "Staphylococcus aureus ATCC25923", "experiment": "MIC, Staphylococcus aureus ATCC25923", "format": "cell-based", "settings": "data from MDS Panlabs Pharmacology Services", "protocol": "as §2"}, "[11]": {"system": "Streptococcus pneumoniea erythromycin- and ampicillin-resistant clinical isolate", "format": "cell-based, Streptococcus pneumoniae", "settings": "data from MDS Panlabs", "protocol": "as §2"}, "[12]": {"system": "Listeria monocytogenes ATCC19115", "experiment": "MIC, Listeria monocytogenes", "format": "cell-based", "protocol": "as §2\n(§3) Preparation of peptide solutions. Stock peptide solutions were prepared in 5% DMSO in aq. sucrose (9%). Determination of peptide concentrations was done by quantitative HPLC analysis using known concentrations of internal standards and/or by measuring UV absorption of tryptophane-containing peptide solutions in H2O (λ=280 εTrp: 5690). Serial 2-fold dilutions were made in the above DMSO/aq. sucrose (9%) mixture with concentrations ranging approximately 400-2 μg/ml and aliquots were dispensed in test tubes (100 μl) for the macrodilution test or in microtiter plates (20 μl) for the microdilution assays.\n(§4) Inoculum preparation. […]"}, "[13]": {"system": "Salmonella typhimurium ATCC 14028", "experiment": "MIC, Salmonella typhimurium", "format": "cell-based", "protocol": "as §2, §3, §4"}, "E. coli JM109 (DE3)": {"system": "E. coli JM109 (DE3)", "experiment": "Time-killing curve, E. coli", "format": "cell-based, Escherichia coli", "settings": "FIG. 8b; at MIC concentrations", "protocol": "(§5) The speed at which several of the cyclic peptides of the invention kill E. coli JM 109 (DE3), Enterococcus faecium SP 180 and S. aureus (MRSA) (ATCC No. 33591 and 33592) was further tested at room temperature and/or at 37° C. A lower temperature tends to enrich the bacterial cultures for mature bacteria because the bacteria are not growing quickly. […] The presence or absence of immature bacteria in the culture may influence the rate at which the bacteria are killed, because immature bacteria tend to be more susceptible to many forms of antibiotics.\nIn FIG. 8b, the log of the number of E. coli colony forming units (cfu) per ml of culture is plotted versus time treated with cyclo[KRKWLWLW] (closed triangles), cyclo[KQRWLWLW] (closed circles), cyclo[KHLWLW] (closed squares), and cyclo[KKWLW] (open squares) at MIC concentrations. […] Cyclic peptide cyclo[KHKLWLW] kills effectively all E. coli within about 90 minutes. Cyclic peptides cyclo[KRKWLWLW] and cyclo[KKWLW] kill effectively all of the E. coli within about 130 minutes. […] Nonetheless, these cyclic peptides kill both types of bacteria very quickly."}, "[14]": {"system": "S. aureus (MRSA) (ATCC No. 33591)", "experiment": "Time-killing curve, S. aureus MRSA ATCC 33591", "format": "cell-based, Staphylococcus aureus", "settings": "FIG. 8a; at MIC concentrations", "protocol": "as §5\nTo generate the data shown in FIG. 8a, the log of the number of colony forming units (cfu) per ml of culture was determined as a function of time after treatment of S. aureus (MRSA) (ATCC No. 33591) with cyclo[KHLWLW] (closed circles), cyclo[KRKWLWLW] (closed triangles), and cyclo[KQRWLWLW] (open squares) at MIC concentrations. […] The reduction in cfu count was greater than 3 log units. Cyclic peptide cyclo[KHLWLW] killed effectively all S. aureus (MRSA) within about 60 minutes."}, "[15]": {"settings": "media a: anti-microbial media-3 (AM-3)"}}, "note": "Like-named read-outs stand apart in the source and are kept apart here. Marks after values point to notes of the source that are not given here. Non-standard residues stand in square brackets, D forms with d. Residues, ends and D or L forms follow the SMILES beside them."}
{"molecule": "MELLITIN [linear peptide that is hemolytic against mammalian red blood cells, reference compound]", "values": [{"measurement": "hemolytic concentration against mammalian red blood cells in vitro", "setting": "murine red blood cells [1]", "result": "about 10 μg/ml"}, {"measurement": "MRSA (in vitro activity)", "setting": "[2]; media b: cation adjusted Meuller Hinton broth (MHBII)", "result": 6.3}, {"measurement": "RBC Hemolysis (HD50)", "setting": "murine red blood cells [3]; Table 9", "result": 10}, {"measurement": "VRE (in vitro activity)", "setting": "[4]; media c: Brain Heart Infusion (BHI)", "result": 6.3}]}
{"molecule": "CC(C)C[C@@H]1NC(=O)[C@@H](Cc2c[nH]c3ccccc23)NC(=O)[C@H](CCCNC(=N)N)NC(=O)[C@@H](CCC(N)=O)NC(=O)[C@H](CCCCN)NC(=O)[C@@H](Cc2c[nH]c3ccccc23)NC(=O)[C@H](CC(C)C)NC(=O)[C@@H](Cc2c[nH]c3ccccc23)NC1=O", "note": "[SEQ ID NO:9, cyclo-[Lys-D-Gln-Arg-D-Trp-Leu-D-Trp-Leu-D-Trp]] (cyclo(K[dQ]R[dW]L[dW]L[dW]))", "values": [{"measurement": "MIC Enterococcus faecalis", "setting": "[5]", "result": "10^b μg/ml"}, {"measurement": "MIC Bacillus subtilis", "setting": "[6]", "result": "3^b μg/ml"}, {"measurement": "CC50", "setting": "[7]", "result": "> 75", "unit": "µg/mL"}, {"measurement": "E. coli MIC", "setting": "E. coli JM109(DE3)", "result": 80, "unit": "µg/mL"}, {"measurement": "S. pneum. MIC", "setting": "[8]", "result": 4, "unit": "µg/mL"}, {"measurement": "B. cerius MIC", "setting": "[9]", "result": 3, "unit": "µg/mL"}, {"measurement": "MIC Bacillus cereus", "setting": "[9]", "result": 2, "unit": "µg/mL"}, {"measurement": "MRSA MIC", "setting": "[2]", "result": 12, "unit": "µg/mL"}, {"measurement": "S. aureus (MRSA) MIC", "setting": "[2]", "result": 8, "unit": "µg/mL"}, {"measurement": "MRSA (in vitro activity)", "setting": "[2]; [15]", "result": 12}, {"measurement": "MIC Staphylococcus aureus", "setting": "[10]", "result": "3^b μg/ml"}, {"measurement": "MIC Streptococcus pneumoniea", "setting": "[11]", "result": "10^b μg/ml"}, {"measurement": "RBC Hemolysis (HD50)", "setting": "murine red blood cells [3]", "result": 40}, {"measurement": "Red blood cell (mouse) HD50", "setting": "murine red blood cells [3]", "result": "45^j μg/ml"}, {"measurement": "MIC Listeria monocytogenes", "setting": "[12]", "result": 20, "unit": "µg/mL"}, {"measurement": "VRE MIC", "setting": "[4]", "result": 12, "unit": "µg/mL"}, {"measurement": "VRE (in vitro activity)", "setting": "[4]; media a: AM-3", "result": 12}, {"measurement": "MIC Salmonella typhimurium", "setting": "[13]", "result": ">70", "unit": "µg/mL"}]}
{"molecule": "CC(C)C[C@H]1NC(=O)[C@H](Cc2c[nH]cn2)NC(=O)[C@@H](CCCCN)NC(=O)[C@H](Cc2c[nH]c3ccccc23)NC(=O)[C@@H](CC(C)C)NC(=O)[C@H](Cc2c[nH]c3ccccc23)NC1=O", "note": "[SEQ ID NO:27, cyclo-(D-Lys-His-D-Leu-Trp-D-Leu-Trp)] (cyclo(H[dL]W[dL]W[dK]))", "values": [{"measurement": "E. coli MIC", "setting": "E. coli JM109(DE3)", "result": 100, "unit": "µg/mL"}, {"measurement": "S. pneum. MIC", "setting": "[8]", "result": 5, "unit": "µg/mL"}, {"measurement": "B. cerius MIC", "setting": "[9]", "result": 5, "unit": "µg/mL"}, {"measurement": "MRSA MIC", "setting": "[2]", "result": 10, "unit": "µg/mL"}, {"measurement": "S. aureus (MRSA) MIC", "setting": "[2]", "result": 10, "unit": "µg/mL"}, {"measurement": "MRSA (in vitro activity)", "setting": "[2]; [15]", "result": 10}, {"measurement": "time to kill effectively all E. coli", "setting": "E. coli JM109 (DE3)", "result": "≤ 90", "unit": "min"}, {"measurement": "time to kill effectively all S. aureus (MRSA)", "setting": "[14]", "result": "≤ 60", "unit": "min"}, {"measurement": "RBC Hemolysis (HD50)", "setting": "murine red blood cells [3]", "result": 25}, {"measurement": "VRE MIC", "setting": "[4]", "result": 40, "unit": "µg/mL"}, {"measurement": "VRE (in vitro activity)", "setting": "[4]; media a: AM-3", "result": 40}]}
